Measured values as given in patent US20260083674A1, “OXAZOLIDINONE LIPOSOME COMPOSITIONS” (priority 2021, published 2026).
Values after ≈ are worked out from the molar mass of the structure shown. Read-outs that look alike come from different tables or passages of the source.

System: M. tuberculosis MDR strains M70, M28, M94, M14, TN5904 and H37Rv
Experiment: microbe, parasite or virus in culture
Type: cell-based, Mycobacterium tuberculosis
Settings: for MIC, μg/mL in M. tuberculosis strain: M14: MDR strain M14, MABA assay; for MIC, μg/mL in M. tuberculosis strain: M28: MDR strain M28, MABA assay; for MIC, μg/mL in M. tuberculosis strain: M70: MDR strain M70, MABA assay; for MIC, μg/mL in M. tuberculosis strain: M94: MDR strain M94, MABA assay; for MIC, μg/mL in M. tuberculosis strain: TN5904: MDR strain TN5904, MABA assay; for MIC, μg/mL in M. tuberculosis strain: H37Rv: drug-susceptible strain H37Rv, MABA assay; for MIC: Mycobacterium tuberculosis, H37RV
[1] = read-out: MIC, μg/mL in M. tuberculosis strain: M94
[2] = read-out: MIC, μg/mL in M. tuberculosis strain: M28

| Compound | MIC, μg/mL in M. tuberculosis strain: M14 [µg/mL] | MIC, μg/mL in M. tuberculosis strain: M28 [µg/mL] | MIC, μg/mL in M. tuberculosis strain: M70 [µg/mL] | MIC, μg/mL in M. tuberculosis strain: M94 [µg/mL] | MIC, μg/mL in M. tuberculosis strain: TN5904 [µg/mL] | MIC, μg/mL in M. tuberculosis strain: H37Rv [µg/mL] | MIC [1] [µg/mL] | MIC [2] [µg/mL] | MIC (read-out: MIC, μg/mL in M. tuberculosis strain: TN5904) [µg/mL] |
| --- | --- | --- | --- | --- | --- | --- | --- | --- | --- |
| NNC(=O)c1ccncc1 [INH] | >2 | >2 | >2 | >2 | 2 (≈ 14.6 µM) | 0.06 (≈ 0.438 µM) |  |  |  |
| CO[C@H]1/C=C/O[C@@]2(C)Oc3c(C)c(O)c4c(O)c(c(/C=N/N5CCN(C)CC5)c(O)c4c3C2=O)NC(=O)/C(C)=C\C=C\[C@H](C)[C@H](O)[C@@H](C)[C@@H](O)[C@@H](C)[C@H](OC(C)=O)[C@@H]1C [RIF] | 0.06 (≈ 0.0729 µM) | >8 | >8 |  | >8 | 0.06 (≈ 0.0729 µM) |  |  |  |
| COc1c(N2C[C@@H]3CCCN[C@@H]3C2)c(F)cc2c(=O)c(C(=O)O)cn(C3CC3)c12 [MOX] |  |  |  |  |  |  | 0.125 (≈ 0.311 µM) |  |  |
| Cn1nnc(-c2ccc(-c3ccc(N4C[C@H](CN)OC4=O)cc3F)cn2)n1 [AKG-3] |  |  |  |  |  |  | 0.06 (≈ 0.162 µM) | 0.06 (≈ 0.162 µM) |  |
| Cl.Cl.NCCn1nnc(-c2ccc(-c3ccc(N4C[C@H](CN)OC4=O)cc3F)cn2)n1 [AKG-29] |  |  |  |  |  |  | 0.125 | 0.125 |  |
| CN[C@@H]1[C@H](O[C@H]2[C@H](O[C@H]3[C@H](O)[C@@H](O)[C@H](N=C(N)N)[C@@H](O)[C@@H]3N=C(N)N)O[C@@H](C)[C@]2(O)C=O)O[C@@H](CO)[C@H](O)[C@H]1O [STR] | >8 | 0.125 (≈ 0.215 µM) | 2 (≈ 3.44 µM) | >8 | 1 (≈ 1.72 µM) | 0.5 (≈ 0.86 µM) |  |  |  |
| CC(=O)NC[C@H]1CN(c2ccc(-c3ccc(-c4nnn(CCN(C)C)n4)nc3)c(F)c2)C(=O)O1 [AKG-38] |  |  |  |  |  |  |  |  | 0.03 (≈ 0.064 µM) |
